Measurements from the OPERA property sets (Mansouri et al. 2018).

Conditions: not given

**Q.** With `CN(C)B(F)N(C)C` as the molecule, how does the boiling point read?
**A.** 106 °C

**Q.** What about the melting point of the same molecule?
**A.** -44.3 °C

**Q.** For `CC(CC(=O)O)C(=O)O` (stereo not given), which melting point is on record?
**A.** 118 °C

**Q.** Which melting point does the source give for `CCNC(N)=S` here?
**A.** 112 °C

**Q.** With `CC(C)(C)Cc1ccccc1` as the molecule, how does the boiling point read?
**A.** 186 °C

**Q.** Which melting point does the source give for `Cc1c(N)cc([N+](=O)[O-])cc1[N+](=O)[O-]` here?
**A.** 174 °C

**Q.** With `CCCCCCCCC(=O)O` as the molecule, how does the boiling point read?
**A.** 254 °C

**Q.** What about the log10 vapour pressure (mmHg) of the same molecule?
**A.** -2.78

**Q.** And the melting point?
**A.** 12.3 °C

**Q.** What about the ready biodegradability of the same molecule?
**A.** readily biodegradable

**Q.** Which results are given for `C=CCBr`?
**A.** boiling point: 70.1 °C; melting point: -119 °C

**Q.** With `C=CCCC=O` as the molecule, how does the boiling point read?
**A.** 99 °C

**Q.** Which melting point does the source give for `CC(N)(CO)CO` here?
**A.** 110 °C

**Q.** Which melting point does the source give for `NNC(=O)c1ccc(N)cc1O` here?
**A.** 195 °C

**Q.** Which boiling point does the source give for `C1CCCCC1` here?
**A.** 80.7 °C

**Q.** And the log10 Henry constant (atm·m³/mol)?
**A.** -0.824

**Q.** And the log10 Koa?
**A.** 2.74

**Q.** And the log10 biodegradation half-life (days)?
**A.** 1.7

**Q.** And the log10 vapour pressure (mmHg)?
**A.** 1.99

**Q.** What about the melting point of the same molecule?
**A.** 6.6 °C

**Q.** And the ready biodegradability?
**A.** not readily biodegradable

**Q.** For `Cc1nccnc1C`, which boiling point is on record?
**A.** 156 °C

**Q.** Which melting point does the source give for `Cc1ccc(S(=O)(=O)N(C)N=O)cc1` here?
**A.** 60 °C

**Q.** For `O=[N+]([O-])c1cc[n+]([O-])cc1`, which melting point is on record?
**A.** 160 °C

**Q.** Which boiling point does the source give for `O=C(Cl)c1ccccc1F` here?
**A.** 206 °C

**Q.** And the melting point?
**A.** 4 °C

**Q.** With `Cc1c(Cl)c(C)c(Cl)c(Cl)c1Cl` as the molecule, how does the melting point read?
**A.** 223 °C

**Q.** For `NC(=O)c1ccccc1N`, which boiling point is on record?
**A.** 300 °C

**Q.** With `Cc1ccc(C(=O)O)cc1C` as the molecule, how does the melting point read?
**A.** 165 °C

**Q.** Which melting point does the source give for `CC[N+](C)(C)C(C)CC(c1ccccc1)c1ccccc1.[Br-]` (stereo not given) here?
**A.** 204 °C

**Q.** For `CC(=O)Cl`, which boiling point is on record?
**A.** 50.7 °C

**Q.** And the log10 vapour pressure (mmHg)?
**A.** 2.46

**Q.** And the melting point?
**A.** -113 °C

**Q.** With `CF` as the molecule, how does the boiling point read?
**A.** -78.4 °C

**Q.** And the log10 vapour pressure (mmHg)?
**A.** 3.46

**Q.** And the melting point?
**A.** -142 °C

**Q.** Which results are given for `OCCS`?
**A.** boiling point: 158 °C; log10 vapour pressure (mmHg): 0.244

**Q.** With `NC(=O)Nc1ccc(Cl)c(Cl)c1` as the molecule, how does the log10 Koc (L/kg) read?
**A.** 2.53

**Q.** For `O=[N+]([O-])c1cc(Br)ccc1O`, which melting point is on record?
**A.** 92 °C

**Q.** With `CCCC(Br)C(=O)OCC` (stereo not given) as the molecule, how does the boiling point read?
**A.** 191 °C

**Q.** With `COc1cccc(C=O)c1` as the molecule, how does the boiling point read?
**A.** 231 °C

**Q.** What about the ready biodegradability of the same molecule?
**A.** readily biodegradable

**Q.** Which boiling point does the source give for `CC1=CCC(C)C1` (stereo not given) here?
**A.** 93.2 °C

**Q.** Which boiling point does the source give for `CN(C)C=Nc1ccccc1` here?
**A.** 127 °C

**Q.** With `C[C@@H]1O[C@@H](O[C@H]2CC[C@]3(C=O)[C@H]4CC[C@]5(C)[C@@H](c6ccc(=O)oc6)CC[C@]5(O)[C@@H]4CC[C@]3(O)C2)[C@H](O)[C@H](O)[C@H]1O[C@@H]1O[C@H](CO)[C@@H](O)[C@H](O)[C@H]1O` as the molecule, how does the melting point read?
**A.** 284 °C

**Q.** Which boiling point does the source give for `C=CCCCCCCCCCC` here?
**A.** 214 °C

**Q.** What about the log10 vapour pressure (mmHg) of the same molecule?
**A.** -0.797

**Q.** What about the melting point of the same molecule?
**A.** -35.2 °C

**Q.** For `C=C(CCl)CCl`, which boiling point is on record?
**A.** 138 °C

**Q.** What about the melting point of the same molecule?
**A.** -14 °C

**Q.** With `ClCc1ccccc1Cl` as the molecule, how does the boiling point read?
**A.** 217 °C

**Q.** What about the melting point of the same molecule?
**A.** -17 °C

**Q.** And the ready biodegradability?
**A.** not readily biodegradable

**Q.** With `FC(F)(Br)C(F)(Cl)Br` (stereo not given) as the molecule, how does the boiling point read?
**A.** 93 °C

**Q.** With `N[C@H](CCC(=O)O)C(=O)O` as the molecule, how does the melting point read?
**A.** 201 °C

**Q.** What does the source list for `OC(c1ccccc1)(c1ccccc1)c1ccccc1`?
**A.** boiling point: 380 °C; melting point: 164 °C

**Q.** Which boiling point does the source give for `CC(O)COc1ccccc1` (stereo not given) here?
**A.** 243 °C

**Q.** With `CNC(=O)N(C)c1nnc(C(F)(F)F)s1` as the molecule, how does the melting point read?
**A.** 136 °C

**Q.** Which boiling point does the source give for `CCCCC(=O)OCC(C)C` here?
**A.** 179 °C

**Q.** Which results are given for `CC=CCC`?
**A.** boiling point: 36.7 °C; melting point: -146 °C

**Q.** For `FC(F)(Br)Br`, which boiling point is on record?
**A.** 25 °C

**Q.** What about the log10 vapour pressure (mmHg) of the same molecule?
**A.** 2.91

**Q.** And the melting point?
**A.** -110 °C

**Q.** For `Clc1cc(Cl)c2oc3c(Cl)c(Cl)c(Cl)cc3c2c1`, which log10 vapour pressure (mmHg) is on record?
**A.** -8.73

**Q.** And the melting point?
**A.** 219 °C

**Q.** For `Brc1c2ccccc2c(Br)c2ccccc12`, which melting point is on record?
**A.** 226 °C

**Q.** Which boiling point does the source give for `CC1CC(C)C(C)C1` (stereo not given) here?
**A.** 117 °C

**Q.** What about the melting point of the same molecule?
**A.** -132 °C

**Q.** Which results are given for `CC(O)C(=O)O` (stereo not given)?
**A.** log10 vapour pressure (mmHg): -1.09; melting point: 40.9 °C; ready biodegradability: readily biodegradable

**Q.** For `Cc1ccccc1CBr`, which boiling point is on record?
**A.** 217 °C

**Q.** And the melting point?
**A.** 21 °C

**Q.** Which ready biodegradability does the source give for `CCc1ccc(-c2ccccc2)cc1` here?
**A.** not readily biodegradable

**Q.** For `O=Cc1cc(Cl)ccc1O`, which melting point is on record?
**A.** 100 °C

**Q.** Which melting point does the source give for `Cc1cc([N+](=O)[O-])ccc1N` here?
**A.** 134 °C

**Q.** Which melting point does the source give for `CN1CCC(OC(c2ccccc2)c2ccccc2)CC1.Cl` here?
**A.** 204 °C

**Q.** For `CCCCC(C)(C)CCC`, which boiling point is on record?
**A.** 158 °C

**Q.** For `CCCOC(=O)C(O)C(O)C(=O)OCCC` (stereo not given), which boiling point is on record?
**A.** 303 °C

**Q.** With `CCCCCCCCCCCCOP(=O)(O)O` as the molecule, how does the ready biodegradability read?
**A.** readily biodegradable

Same assay, conditions: fish

**Q.** For `Nc1ccc(S(=O)(=O)[O][Na])c2ccccc12`, which log10 BCF is on record?
**A.** 0.78

**Q.** For `C1CCCCC1`, which log10 BCF is on record?
**A.** 1.92

**Q.** What about the log10 biotransformation half-life (days) of the same molecule?
**A.** -0.66

**Q.** Which log10 biotransformation half-life (days) does the source give for `C=CCCCCCCCCCC` here?
**A.** 0.83

**Q.** With `CCc1ccc(-c2ccccc2)cc1` as the molecule, how does the log10 BCF read?
**A.** 2.82

**Q.** And the log10 biotransformation half-life (days)?
**A.** 0.06
